{
  "source": "patent US8318898B2",
  "about": "“Synthetic peptides for use as inhibitors of neurotransmitter secretion and as inducers of cellular relaxation” (Universite de Lausanne, priority 2005, dated 2012)",
  "key": {"PC12 cells [1]": {"tested_on": "PC12 cells", "test": "Inhibition of [3H]norepinephrine neurosecretion by PC12 cells", "format": "cell-based, rat", "settings": "for inhibition of secretion, stability test: 100 μM", "protocol": "Using the neurosecretion assay described above, peptides fused to the TAT-PTD (L-TAT) were tested for inhibition of neurotransmitters and compared to use of L-TAT alone (SEQ ID NO: 3). In vitro screening for synthetic peptides capable of efficiently and selectively blocking neurotransmitter release in the PC12 cell line grown under defined conditions was performed.\nPC12 cells were washed with DMEM-WM (Dulbecco's Modified Eagle Medium (GIBCO cat. no. 31968) completed with 25 units of penicillin and streptomycin each) and loaded for 1-2 h with [^3H] norepinephrine (NE; 0.5 μCi/ml) in DMEM-CM (DMEM-WM complemented with 6% horse serum and 6% fetal calf serum). Cells were washed for 1 h with DMEM-WM, and then washed 2 times at 5-minute intervals. Basal release was determined by a 15-minutes incubation with CaSB-glucose 5 mM K^+ (CaSB-glucose: 140 mM NaCl, 5 mM KCl, 2 mM CaCl2, 11 mM glucose, [pH 7.4]). The peptides were added to the cells at defined concentrations after loading with NE but before induction of secretion. Cells were depolarized with 85 mM K^+ (CaSB-glucose with Na^+ reduced accordingly) for 15 minutes to determine stimulated release. Superfusate (1 ml) was removed to tubes. Adherent cells were solubilized in CaSB-glucose-0.1% Triton (1 ml/well). The quantities of released and non-released radiolabeled neurotransmitter were determined by liquid scintillation counting of cleared superfusates and cell lysates, respectively. Total uptake was calculated by addition of released and retained radioactivity, and the percentage release was as calculated (released counts/total uptake counts)×100. Results were also expressed as percent inhibition of neurosecretion."}, "PC12-ES cells": {"tested_on": "PC12-ES cells", "test": "Evoked neurotransmitter secretion by undifferentiated PC12-ES cells, furin inhibitor and arginine rich peptides", "format": "cell-based, rat", "settings": "potassium 80 mM, 15 minutes"}, "PC12 cells [2]": {"tested_on": "PC12 cells", "format": "cell-based, rat", "protocol": "[…]. Very little toxicity was present at 24 hours, and cytotoxicity at 48 hours was only slightly greater than at 24 hours. Cytotoxicity generally dipped to approximately 90% live cells when peptides were administered at 500 μM."}, "Recombinant furin": {"target": "Recombinant furin (Homo sapiens, UniProt P09958)", "sequence (P09958 108-794)": "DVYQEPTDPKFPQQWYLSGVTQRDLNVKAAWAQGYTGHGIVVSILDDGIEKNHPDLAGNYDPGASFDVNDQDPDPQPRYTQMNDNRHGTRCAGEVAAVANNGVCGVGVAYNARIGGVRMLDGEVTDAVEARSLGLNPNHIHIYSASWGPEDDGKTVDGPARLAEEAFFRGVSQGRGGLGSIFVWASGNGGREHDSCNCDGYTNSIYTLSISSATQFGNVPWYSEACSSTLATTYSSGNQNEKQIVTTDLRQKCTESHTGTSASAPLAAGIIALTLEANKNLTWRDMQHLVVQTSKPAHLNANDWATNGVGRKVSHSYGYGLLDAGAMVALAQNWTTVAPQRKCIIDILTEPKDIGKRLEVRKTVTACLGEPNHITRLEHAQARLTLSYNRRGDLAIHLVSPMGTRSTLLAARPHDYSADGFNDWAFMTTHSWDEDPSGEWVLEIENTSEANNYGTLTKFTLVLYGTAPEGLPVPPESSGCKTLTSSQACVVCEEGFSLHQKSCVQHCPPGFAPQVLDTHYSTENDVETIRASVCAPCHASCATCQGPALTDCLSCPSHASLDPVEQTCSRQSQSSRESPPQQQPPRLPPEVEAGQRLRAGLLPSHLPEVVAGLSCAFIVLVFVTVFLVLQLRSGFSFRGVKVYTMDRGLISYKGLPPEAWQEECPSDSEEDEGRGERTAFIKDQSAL", "test": "biochemical", "format": "biochemical", "protocol": "To determine if the peptides described herein have an effect on the activity of PC enzymes which are involved in a condition or disorder such as fibrosis, the effect of the peptides on furin activity in vitro was measured as percent inhibition of cleavage of the furin substrate fluorogenic t-butyloxycarbonyl (Boc)-RVRR-7-amino-4-methylcoumarin (MCA).\nAll in vitro enzyme studies were performed at room temperature in a final volume of 50-100 μl in 96-well flat-bottom black plates. The buffer consisted of 100 mM HEPES, 1 mM CaCl2, 0.5% TritonX-100, and 1 mM 2-β-mercaptoethanol pH 7.5. Assays were performed using Boc-RVRR-MCA as fluorogenic substrate at 100 μM. Recombinant furin (0.8 U of activity) was incubated with Boc-RVRR-MCA in the presence or absence of varying concentrations of synthetic peptides D-9Rac/am (SEQ ID NO. 15), L-Bel1 (SEQ ID NO. 3), or L-9K (SEQ ID NO. 6). One unit of activity is defined as the amount of furin that can release 1 μmol of MCA from the fluorogenic Boc-RVRR-MCA per min at 30° C. The release of highly fluorescent 7-amino 4-methyl coumarin (MCA) from the Boc-RVRR-MCA was monitored by a spectrofluorometer instrument at excitation and emission wavelengths of 370 nm/460 nm. […]"}, "rat lung fibroblast (LF)": {"tested_on": "rat lung fibroblast (LF)", "test": "Cell contraction/relaxation on wrinkling silicone substrate, live videomicroscopy", "format": "cell-based", "settings": "10 μM and 50 μM", "protocol": "To study the effect(s) of the peptides on muscle cells, which associate with neurosecretory cells at neuromuscular junctions, peptides were cultured with rat lung fibroblast (LF) grown over wrinkling substrate (silicon) which can mimic the effects of contraction. These cells have a myofibroblastic phenotype, e.g., production of TGF-β, which make them suitable for cellular contraction/relaxation studies.\nWrinkling silicone substrates were prepared as essentially described previously (Harris, et al., Science. 208:177-179, 1980; Hinz, et al., Mol Biol Cell. 12:2730-41, 2001). Briefly, 50 μl of silicone (poly dimethyl siloxane; 30.000 centistokes, Dow Corning, Midland, Mich.) were deposited onto a 35 mm round glass coverslip at the bottom of a self-made observation chamber, which was centrifuged at 1.000 rpm for 2 minutes to spread the viscous fluid. The silicone surface was then crosslinked by passing it through a Bunsen flame; a flaming time of 1 second produced a surface stiffness that restricted wrinkle formation to fibroblasts with high contractile force (Hinz et al., supra). The polymerized silicone surface was finally coated with 10 μg/ml collagen type I (Sigma) for 2 hours at 37° C. Lung fibroblast cells were seeded at a density of 3.5×10^3 cells/cm^2 and cultured for 1-2 days before the experiment. […]"}, "[3]": {"tested_on": "smooth muscle cell line (A7r5)", "test": "Cell contraction/relaxation on silicon sheet, smooth muscle cells", "format": "cell-based", "protocol": "Lung biopsy was obtained from a Sprague Dawley rat, divided in small tissue slices, placed in culture dishes, and maintained then in organ culture in Dulbecco's modified Eagle's medium (GibcoBRL, Life Technologie) containing 10% decomplemented fetal bovine serum (FBS) supplemented with 100 U/ml penicillin, 100 μg/ml streptomycin, 4 mM I-glutamine, at 37° C., in 5% CO2. Cells were maintained during 2-3 weeks (2-8 passages), replacing medium frequently. At confluence, cells were detached from the culture dish with 0.125% trypsin-EDTA mixture (Sigma) for 10 minutes at 37° C., resuspended in complete medium, and seeded over silicon-coated tissue culture dishes at 3.5×10^3 cells/cm^2. One to two days after, cells were treated with the appropriate peptide at 10 or 50 μM, and peptide-induced cell contraction/relaxation effect followed for 1-3 hours by live videomicroscopy. A smooth muscle cell line (A7r5) kept in similar conditions was also used to follow the peptide-induced effects on these cells grown over silicon sheet.\nLive videomicroscopy was performed under controlled temperature and CO2 conditions using a Zeiss Axiovert 200M (Zeiss, Oberkochem, Germany), equipped with a spinning disk Nipkow confocal head (Yokogawa CSU10), Photometrics CoolSNAP-HQ CCD camera and Metamorph 6.0 acquisition software (Visitron Systems, Puchheim, Germany). […]"}, "lung fibroblasts": {"tested_on": "lung fibroblasts", "test": "Stressed collagen lattice contraction assay", "format": "cell-based, rat", "settings": "peptide 60 minutes before gel release; compared to control gels and L-9K treated gels; preliminary"}},
  "note": "Where two headings read alike, the source gives them in different places.",
  "data": [
    {"smiles": "N=C(N)NCCC[C@H](NC(=O)CNC(=O)[C@H](Cc1ccc(O)cc1)NC(=O)CN)C(=O)N[C@@H](CCCCN)C(=O)N[C@@H](CCCCN)C(=O)N[C@@H](CCCNC(=N)N)C(=O)N[C@@H](CCCNC(=N)N)C(=O)N[C@@H](CCC(N)=O)C(=O)N[C@@H](CCCNC(=N)N)C(=O)N[C@@H](CCCNC(=N)N)C(=O)N[C@@H](CCCNC(=N)N)C(=O)NCC(=O)O", "note": "[L-Tat]", "values": [
      {"measurement": "dose dependence of inhibition of neurosecretion", "setting": "PC12 cells [1]", "result": "dose dependent inhibition"},
      {"measurement": "inhibition of secretion, stability test", "setting": "PC12 cells [1]; 0 hours", "result": 50, "unit": "%"},
      {"measurement": "inhibition of secretion, stability test", "setting": "PC12 cells [1]; 1 hour", "result": 38, "unit": "%"},
      {"measurement": "inhibition of secretion, stability test", "setting": "PC12 cells [1]; 24 hours", "result": 35, "unit": "%"},
      {"measurement": "inhibition of secretion, stability test", "setting": "PC12 cells [1]; 48 hours", "result": 39, "unit": "%"},
      {"measurement": "inhibition of secretion, stability test", "setting": "PC12 cells [1]; No Serum", "result": 65, "unit": "%"},
      {"measurement": "dose dependence of inhibition of neurosecretion", "setting": "PC12 cells [1]; listed as L-Bel1", "result": "dose dependent"},
      {"measurement": "inhibition of PC12 neurotransmitter secretion", "setting": "PC12 cells [1]; peptide 10 μM", "result": ">20", "unit": "%"},
      {"measurement": "inhibition of PC12 neurotransmitter secretion", "setting": "PC12 cells [1]; peptide 50 μM", "result": 50, "unit": "%"},
      {"measurement": "inhibition of PC12 neurotransmitter secretion", "setting": "PC12 cells [1]; peptide 100 μM", "result": 55, "unit": "%"},
      {"measurement": "inhibition of PC12 neurotransmitter secretion", "setting": "PC12 cells [1]; peptide 100 μM, listed as L-Bel1", "result": "more than 60%"},
      {"measurement": "inhibition of PC12 neurotransmitter secretion", "setting": "PC12 cells [1]; peptide 250 μM", "result": 70, "unit": "%"},
      {"measurement": "inhibition of evoked neurotransmitter secretion by PC12-ES cells", "setting": "PC12-ES cells; 10 μM", "result": 24.6, "unit": "%"},
      {"measurement": "inhibition of evoked neurotransmitter secretion by PC12-ES cells", "setting": "PC12-ES cells; 100 μM", "result": 56.4, "unit": "%"},
      {"measurement": "cytotoxicity (MTT)", "setting": "PC12 cells [2]", "result": "no marked cytotoxicity"},
      {"measurement": "concentration for complete blockade of cleavage of Boc-RVRR-MCA by furin", "setting": "Recombinant furin", "result": 3.5, "unit": "µM"},
      {"measurement": "inhibition of in vitro furin activity (in words)", "setting": "Recombinant furin; Boc-RVRR-MCA 100 μM as substrate", "result": "inhibited to completion"},
      {"measurement": "Ki", "setting": "Recombinant furin; furin, Boc-RVRR-MCA substrate, read-out: Ki(app)", "result": 370, "unit": "nM"},
      {"measurement": "relaxing effect on lung myofibroblasts on silicon substrate", "setting": "rat lung fibroblast (LF)", "result": "slow but constant loss of silicon substrate wrinkles and cell detachment"},
      {"measurement": "relaxing effect on smooth muscle cells", "setting": "[3]", "result": "same effect"},
      {"measurement": "myofibroblast-mediated collagen gel contraction", "setting": "lung fibroblasts", "result": "decrease"}
    ]}
  ]
}
